In patent US10512630B2, “Compositions and methods for treating cancer” (The Regents Of The University Of California, priority 2015, dated 2019):

Experiments:
[1] = tested on: MDA-MB-231 triple-negative breast cancer cells; experiment: Proliferation of MDA-MB-231 triple-negative breast cancer cells in vitro; type: cell-based, human; settings: for Cell proliferation (% control) as a function of parthenolide analog dose (10 uM). / Cell proliferation (% control) as a function of parthenolide analog dose (50 uM).: MDA-MB-231 cells, data corresponds to FIG. 5; for Antitumor effects compared with dimethylamino-parthenolide (DMAPT): MDA-MB-231, doses 0-50 micromolar, most notable at 10 micromolar, FIG. 2
Description: (§1) FIG. 2: Parthenolides inhibit proliferation of MDAMB231 triple negative breast cancer cells. Parthenolide analogues JD211-JD216 were tested for antitumor activity using triple-negative breast cancer cells (MDA-MB-231) in vitro. Doses ranged from 0-50 micromolar and tumor cell proliferation was assessed using established methods. […] This was most notable at lower compound dose at 10 micromolar. These findings indicate that novel compounds such as JD213, JD214, JD215 and JD216 are more promising candidates for anticancer therapy then DMAPT because these cancers are more sensitive to compounds other than DMAPT.
as §1, with “Parthenolide” for “FIG. 2: Parthenolides inhibit proliferation of MDAMB231 triple negative breast cancer cells. Parthenolide”

[2] = tested on: human umbicical vein endothelial cells (HUVEC); experiment: Proliferation of human umbilical vein endothelial cells (HUVEC) in vitro; type: cell-based; settings: dosed at 100-nM or at doses up to 10-uM (not shown); FIG. 6

For `C/C1=C\CC[C@@]2(C)O[C@H]2[C@H]2OC(=O)[C@@H](CNCC(=O)O)[C@@H]2CC1` [JD211, (((3R,3aS,1bS,E)-6,9a-dimethyl-2-oxo-2,3,3a,4,5,8,9,9a,10a,10b-decahydrooxire-no[2′,3′:9,10]cyclodeca[1,2-b]furan-3-yl)methyl)glycine], the “Cell proliferation (% control) as a function of parthenolide analog dose (10 uM).” value [1] was 106.0 % control and the “Cell proliferation (% control) as a function of parthenolide analog dose (50 uM).” value [1] was 105.8 % control.

`C/C1=C\CC[C@@]2(C)O[C@H]2[C@H]2OC(=O)[C@@H](CNC(C)(C)C(=O)OCc3ccccc3)[C@@H]2CC1` [JD212, Benzyl 2-((((3R,3aS,10bS,E)-6,9a-dimethyl-2-oxo-2,3,3a,4,5,8,9,9a,10a,10b-decahydrooxir-eno[2′,3′:9,10]cyclodeca[1,2-b]furan-3-yl)methyl)amino)-2-methylpropanoate] was tested, and the “Cell proliferation (% control) as a function of parthenolide analog dose (10 uM).” value [1] was 103.4 % control and the “Cell proliferation (% control) as a function of parthenolide analog dose (50 uM).” value [1] was 100.8 % control.

With `C/C1=C\CC[C@@]2(C)O[C@H]2[C@H]2OC(=O)[C@@H](CN(C)CC(=O)OCc3ccccc3)[C@@H]2CC1` [JD213, Benzyl N-(((3R,3aS,10bS,E)-6,9a-dimethyl-2-oxo-2,3,3a,4,5,8,9,9a,10a,10b-decahydrooxire-no[2′,3′:9,10]cyclodeca[1,2-b]furan-3-yl)methyl)-N-methylglycinate] the “Cell proliferation (% control) as a function of parthenolide analog dose (10 uM).” value [1] was 26.7 % control, the “Cell proliferation (% control) as a function of parthenolide analog dose (50 uM).” value [1] was 0.4 % control and the “Antitumor effects compared with dimethylamino-parthenolide (DMAPT)” value [1] was “greater than that observed with dimethylamino-parthenolide (DMAPT)”.

With `C/C1=C\CC[C@@]2(C)O[C@H]2[C@H]2OC(=O)[C@@H](CN(C)CC(=O)O)[C@@H]2CC1` [JD214, N-(((3R,3aS,10bS,E)-6,9a-Dimethyl-2-oxo-2,3,3a,4,5,8,9,9a,10a,10b-decahydrooxire-no[2′,3′:9,10]cyclodeca[1,2-b]furan-3-yl)methyl)-N-methylglycine] the “Cell proliferation (% control) as a function of parthenolide analog dose (10 uM).” value [1] was 40.0 % control, the “Cell proliferation (% control) as a function of parthenolide analog dose (50 uM).” value [1] was 16.6 % control and the “Antitumor effects compared with dimethylamino-parthenolide (DMAPT)” value [1] was “greater than that observed with dimethylamino-parthenolide (DMAPT)”.

In the case of `C/C1=C\CC[C@@]2(C)O[C@H]2[C@H]2OC(=O)[C@@H](CNC(C)(C)C(=O)O)[C@@H]2CC1` [JD215, 2-((((3R,3aS,10bS,E)-6,9a-Dimethyl-2-oxo-2,3,3a,4,5,8,9,9a,10a,10b-decahydrooxire-no[2′,3′:9,10]cyclodeca[1,2-b]furan-3-yl)methyl)amino)-2-methylpropanoic acid], the “Cell proliferation (% control) as a function of parthenolide analog dose (10 uM).” value [1] is reported as 59.5 % control, the “Cell proliferation (% control) as a function of parthenolide analog dose (50 uM).” value [1] is reported as 0 % control and the “Antitumor effects compared with dimethylamino-parthenolide (DMAPT)” value [1] is reported as “greater than that observed with dimethylamino-parthenolide (DMAPT)”.

In the case of `C/C1=C\CC[C@@]2(C)O[C@H]2[C@H]2OC(=O)[C@@H](CNCC(=O)OCc3ccccc3)[C@@H]2CC1` [JD216, Benzyl (((3R,3aS,10bS,E)-6,9a-dimethyl-2-oxo-2,3,3a,4,5,8,9,9a,10a,10b-decahydrooxire-no[2′,3′:9,10]cyclodeca[1,2-b]furan-3-yl)methyl)glycinate], the “Cell proliferation (% control) as a function of parthenolide analog dose (10 uM).” value [1] is reported as 0 % control, the “Cell proliferation (% control) as a function of parthenolide analog dose (50 uM).” value [1] is reported as 0 % control and the “Suppression of MDA-MB-231 cell proliferation” value ([1]; 100-nM dose (0.1-uM) in vitro, compared to control (P<0.001), FIG. 6) is reported as “effectively suppress”. The “Antitumor effects compared with dimethylamino-parthenolide (DMAPT)” value [1] was “greater than that observed with dimethylamino-parthenolide (DMAPT)” and the “Effect on proliferation of HUVEC” value [2] was “does not significantly alter”.
